For experiment [1], the system named is Histoplasma capsulatum. Nature of the experiment: Antimicrobial activity against Histoplasma capsulatum isolates form AIDS patient with relapsed histoplasmosis by modified CLSI method. It is filed as functional.
Experiment [2] concerns Histoplasma capsulatum. As to the kind of experiment: Antimicrobial activity against Histoplasma capsulatum isolates form AIDS patient with primary histoplasmosis by modified CLSI method. Type of experiment: functional.

In ChEMBL document CHEMBL1150786, “Relationship of blood level and susceptibility in voriconazole treatment of histoplasmosis” (2007) one finds MIC data, which are given here for one compound.

In brackets after ≈: the same amount, converted by molar mass.

By MIC is commonly meant the lowest concentration that inhibits growth of the organism. Read a low MIC as greater potency. As to `C[C@@H](c1ncncc1F)[C@](O)(Cn1cncn1)c1ccc(F)cc1F` [VORICONAZOLE], the values for the MIC in the experiment with Histoplasma capsulatum [1] and against Histoplasma capsulatum [2] were 0.03 µg/mL (≈ 0.0859 µM) and 0.015 µg/mL (≈ 0.0429 µM), respectively.
